The target of the assay is Human TRPV4 (Homo sapiens, UniProt Q9HBA0). Briefly: TRPV4 calcium flux assay (FLIPR, antagonist mode). It is filed as cell-based. The conditions noted are these: HEK293T cells transfected with hTRPV4; antagonist mode vs EC80 of TRPV4 agonist; average of at least 3 separate experiments; read-out: Human TRPV4 Ca2+ Assay IC50. Set-up: HiBiT (inferred from the expression read-out); host or cells: HEK293T. As for the experimental part:
Example 23. TRPV4 Calcium Assay Methods
Human embryonic kidney 293T (HEK293T/293T) cells are cultured in complete media (Dulbecco's Modified Eagle Medium (DMEM), containing 10% fetal bovine serum (FBS) and 1× penicillin-streptomycin) in a T-75 tissue culture flask. At 90% confluency, cells are detached using TrypLE™ Express cell dissociation buffer. TrypLE™ Express buffer is neutralized by adding culture media in excess. Cells are gently triturated and counted using trypan blue in a Countess 3 automated cell counter. Cells are transferred to a 50 mL conical tube and spun down at 1000 rotations per minute (RPM) for five minutes in a benchtop centrifuge. Media containing detaching enzyme is aspirated off the pellet, followed by resuspension to the desired concentration of 2×10^6 cells per mL in complete DMEM.
Transfection preparations were scaled using a combination of 6 μg of TRPV4 wild-type or mutant plasmid DNA, 36 μL of Fugene6 transfection reagent, and 1000 μL of OptiMEM media for every 2×10^6 cells needed. The transfection mix is left to incubate for 20 minutes at room temperature. Total seeding mixture (1000 μL 2×10^6 cells, 1000 μL transfection mix previously described, and 1000 μL complete DMEM) for one transfection is combined into a 15 mL conical tube. The cells and transfection plasmid are mixed thoroughly and dispensed into a reservoir. This is plated at 25 μL per well in a black 384, black-well, clear-bottom, tissue-culture treated plate. This yields approximately 16,000 cells per well. Plasmid DNA constructs were designed by Actio Biosciences in conjunction with Genscript, and generated by Genscript, for all hTRPV4 wild-type and hTRPV4 P/LP (ClinVar) mutations (G78W, P82S, T891, P97R, R186Q, R232C, R232P, R237G, R237Q, R237 L, R269C, R269H, R269S, G270V, R271P, F273 L, K276E, E278K, G280S, Y281S, R315G, R315W, R316C, R316H, R316 L, R316S, I331F, D333G, S403T, K403T, K407E, S542P, S542Y, L543R, Y591N, R594C, R594H, R594S, G600E, Y602C, R616Q, F617 L, L618P, V6201, A716S, A716T, L735R, T740I, R775K, W785R, E797D, E797K, P799A, P799R, P799S, P799 L, G800D, K801E, P827H, F471del, N797del). The remaining cells are plated in the same manner, in a 384, white-well, clear-bottom, tissue-culture treated plate for expression and relative cell number determination. Plates are placed in the incubator at 37° C. overnight.
Compounds were brought to 10 mM in DMSO. DMSO concentration was kept constant throughout the dilution of any compound. DMSO negative control and concentration-response curves were nanoliter-spotted via PICO8 automated dispenser at 5× test concentration into a 384w clear polypropylene plate containing 1×HBSS+20 mM HEPES buffer. A predetermined concentration equivalent to the EC80 of TRPV4 agonist on hTRPV4 was prepared at 6× in 1×HBSS+20 mM HEPES and loaded into a separate 384-well v-bottom polypropylene plate.
Approximately 18 hours post-transfection, the cell plates were removed from the incubator and equal volume (25 uL) Calcium 6 dye was gently added. Calcium 6 dye containing probenecid (final 5 mM) was prepared per manufacturer's instructions. Cell plate was returned to the incubator for 1 hour, at 37° C.
FLIPR Penta was programmed to add compound using the following settings • Pipettor Head=384 • Read Mode 1 Excitation Wavelength=470_495 • Read Mode 1 Emission Wavelength=515_575 • Read Mode 1 Exposure=0.1000 • Read Mode 1 Gain=6.50 • Read Mode 1 Excitation Intensity=20 • Volume of addition=12.5 μL • Height=40 μL • Speed=15 μL/second
Raw data was exported and analyzed for maximum signal (RFU) after agonist addition—the average baseline (RFU) in the first 15 seconds per well. Data was plotted in GraphPad Prism to determine EC50 or IC50 of the molecules.
On the technique in general: Calcium flux is commonly read through the fluorescence of an indicator in the cells.

Human TRPV4, sequence (Q9HBA0 whole entry): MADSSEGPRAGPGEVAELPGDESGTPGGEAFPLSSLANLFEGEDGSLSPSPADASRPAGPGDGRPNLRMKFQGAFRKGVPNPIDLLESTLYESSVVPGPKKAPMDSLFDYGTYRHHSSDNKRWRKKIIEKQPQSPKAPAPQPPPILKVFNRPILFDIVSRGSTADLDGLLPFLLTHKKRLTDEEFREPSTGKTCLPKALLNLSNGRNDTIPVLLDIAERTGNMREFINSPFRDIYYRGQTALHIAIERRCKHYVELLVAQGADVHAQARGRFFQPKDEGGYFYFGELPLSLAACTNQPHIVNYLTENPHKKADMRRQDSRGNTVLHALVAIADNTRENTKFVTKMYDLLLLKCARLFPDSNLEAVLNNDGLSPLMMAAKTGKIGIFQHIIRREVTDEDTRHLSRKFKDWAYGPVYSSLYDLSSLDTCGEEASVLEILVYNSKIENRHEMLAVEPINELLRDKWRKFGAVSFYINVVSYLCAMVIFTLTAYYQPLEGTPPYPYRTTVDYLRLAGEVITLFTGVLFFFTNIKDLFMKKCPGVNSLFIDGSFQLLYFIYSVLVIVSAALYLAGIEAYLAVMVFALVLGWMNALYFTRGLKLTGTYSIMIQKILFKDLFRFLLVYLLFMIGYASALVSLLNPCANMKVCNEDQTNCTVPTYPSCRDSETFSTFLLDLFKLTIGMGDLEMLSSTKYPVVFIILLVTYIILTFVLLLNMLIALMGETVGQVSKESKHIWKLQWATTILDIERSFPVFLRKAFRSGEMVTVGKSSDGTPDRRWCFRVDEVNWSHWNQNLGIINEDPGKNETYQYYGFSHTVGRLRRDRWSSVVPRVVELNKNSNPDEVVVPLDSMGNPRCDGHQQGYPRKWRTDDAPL

For the compound `CC(C)(O)c1cnc(N2C[C@@]3(CC[C@@H](F)[C@](C)(Cn4cnc5ccc(C#N)cc54)C3)OC2=O)cn1` (single isomer, unassigned) [Example 5], the IC50 was found to be 13 nM.

What is called IC50 is the concentration needed to halve the response being measured.
